This note sets out measurements from ChEMBL document CHEMBL1149658, “Pyridinylimidazole inhibitors of Tie2 kinase” (Bioorg Med Chem Lett, 2007).

Molecules are shown by their SMILES.

One experiment has as its target Angiopoietin-1 receptor (Homo sapiens, UniProt Q02763). Description: Inhibition of Tie2 kinase by autophosphorylation assay. Format: functional.
Experiment [1] is described as follows: Inhibition of P38 kinase. The arrangement: species or system Homo sapiens.
Experiment [2] deals with Mus musculus. Nature of the experiment: Reduction in bFGF-induced angiogenesis in Matrigel mouse model at 25 mg/kg, ip bid. Details: scale not given: the % may be the effect or the level left. The conditions noted are these: route intraperitoneal. Format: functional.
Experiment [3] relates to Mus musculus. Nature of the experiment: Reduction in bFGF-induced angiogenesis in Matrigel mouse model at 50 mg/kg, ip bid. Format: functional. Details: scale not given: the % may be the effect or the level left. The settings on record: route intraperitoneal.
Another experiment deals with MOPC 315. Nature of the experiment: Efficacy in mouse MOPC315 cells xenografted mouse assessed as delay in tumor growth. Format: functional, cell-based.

Chain of Angiopoietin-1 receptor (Q02763 whole entry): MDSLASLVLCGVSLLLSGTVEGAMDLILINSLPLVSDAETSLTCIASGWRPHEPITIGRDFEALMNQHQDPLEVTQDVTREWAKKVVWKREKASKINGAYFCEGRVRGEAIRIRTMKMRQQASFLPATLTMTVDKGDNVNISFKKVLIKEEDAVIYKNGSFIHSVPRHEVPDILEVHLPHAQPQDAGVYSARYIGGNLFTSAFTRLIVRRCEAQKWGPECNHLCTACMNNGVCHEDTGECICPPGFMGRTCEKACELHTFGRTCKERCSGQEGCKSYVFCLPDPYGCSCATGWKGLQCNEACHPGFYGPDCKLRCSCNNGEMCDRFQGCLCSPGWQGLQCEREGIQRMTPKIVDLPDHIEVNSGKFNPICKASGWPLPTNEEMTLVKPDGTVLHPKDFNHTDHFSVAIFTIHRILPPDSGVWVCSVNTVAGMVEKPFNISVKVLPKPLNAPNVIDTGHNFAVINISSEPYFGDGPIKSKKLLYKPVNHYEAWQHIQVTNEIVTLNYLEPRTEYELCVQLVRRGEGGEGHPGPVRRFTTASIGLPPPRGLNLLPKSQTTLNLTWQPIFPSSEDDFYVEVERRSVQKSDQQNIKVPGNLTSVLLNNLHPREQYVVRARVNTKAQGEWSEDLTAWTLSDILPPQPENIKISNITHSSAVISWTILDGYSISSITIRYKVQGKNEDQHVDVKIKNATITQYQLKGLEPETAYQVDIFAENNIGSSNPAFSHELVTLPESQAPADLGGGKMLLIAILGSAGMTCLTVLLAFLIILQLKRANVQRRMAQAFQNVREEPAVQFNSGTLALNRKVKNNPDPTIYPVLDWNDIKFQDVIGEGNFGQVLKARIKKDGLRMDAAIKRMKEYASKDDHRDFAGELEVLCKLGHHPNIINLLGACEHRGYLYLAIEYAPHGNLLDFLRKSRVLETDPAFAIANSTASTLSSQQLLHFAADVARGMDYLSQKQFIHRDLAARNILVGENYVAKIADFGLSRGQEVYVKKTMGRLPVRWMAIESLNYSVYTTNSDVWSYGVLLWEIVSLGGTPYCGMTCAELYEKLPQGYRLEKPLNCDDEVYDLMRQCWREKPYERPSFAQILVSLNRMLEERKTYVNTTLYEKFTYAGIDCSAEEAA

Broadly, the IC50 is the concentration at which inhibition is half-maximal. Take `COc1ccc2cc(-c3nc(-c4ccc([S+](C)[O-])cc4)n(C)c3-c3ccncc3)ccc2c1` (stereo not given): the IC50 against Angiopoietin-1 receptor was 20 µM; in experiment [1], 16 µM.
As to `Cc1ccc2cc(-c3nc(-c4ccc([S+](C)[O-])cc4)[nH]c3-c3ccncc3)ccc2c1` (stereo not given), the IC50 on Angiopoietin-1 receptor turned out to be 0.219 µM; in experiment [1], 0.741 µM.
On to `COc1ccc2cc(-c3c(-c4ccncc4)nc(-c4ccc([S+](C)[O-])cc4)n3C)ccc2c1` (stereo not given), for which the figures for the IC50 (at Angiopoietin-1 receptor; in experiment [1]) were 0.06 µM and 16 µM, respectively. Moreover, the Activity in the experiment with Mus musculus [2] was 5%; in the experiment with Mus musculus [3], 30%.
For `C[S+]([O-])c1ccc(-c2nc(-c3ccc4cc(-c5ccccc5)ccc4c3)c(-c3ccncc3)[nH]2)cc1` (stereo not given), the concentration for half-maximal inhibition (IC50) is 5.5 µM against Angiopoietin-1 receptor and 16.5 µM in experiment [1].
On the same counts, the results for `C[S+]([O-])c1ccc(-c2nc(-c3ccc4cc(Br)ccc4c3)c(-c3ccncc3)[nH]2)cc1` (stereo not given) are 0.339 µM and 4.57 µM.
In the same order, the values of `CCn1c(-c2ccc([S+](C)[O-])cc2)nc(-c2ccncc2)c1-c1ccc2cc(OC)ccc2c1` (stereo not given) are 5.37 µM and above 16 µM.
Turning to `CCCn1c(-c2ccc([S+](C)[O-])cc2)nc(-c2ccncc2)c1-c1ccc2cc(OC)ccc2c1` (stereo not given), the concentration for half-maximal inhibition (IC50) at Angiopoietin-1 receptor was 0.437 µM; in experiment [1] it was above 16 µM.
Turning to `COc1ccc2cc(-c3nc(-c4ccc([S+](C)[O-])cc4)[nH]c3-c3ccncc3)ccc2c1` (stereo not given), the IC50 was found to be 0.25 µM on Angiopoietin-1 receptor and 50 µM in experiment [1]. The Activity in the experiment on Mus musculus [2] was 41%; in the experiment with MOPC 315 it was “Dose-dependent effect”; in the experiment on Mus musculus [3], 70%.
As to `C[S+]([O-])c1ccc(-c2nc(-c3ccc4ccccc4c3)c(-c3ccncc3)[nH]2)cc1` (stereo not given), the IC50 (against Angiopoietin-1 receptor; in experiment [1]) was 0.3 µM in each case.
For `COc1ccc2cc(-c3c(-c4ccncc4)nc(-c4ccc([S+](C)[O-])cc4)n3CC(C)C)ccc2c1` (stereo not given), the IC50 against Angiopoietin-1 receptor was 3.89 µM; in experiment [1] it was above 16 µM.
